In patent US10077261B2, “Imidazolin-5-one derivative useful as FASN inhibitors for the treatment of cancer” (Janssen Pharmaceutica NV, priority 2012, dated 2018):

Target: T1, hFASN enzyme (full length) (Homo sapiens, UniProt P49327)
T1 construct: 10 μL hFASN enzyme (full length, 300 ng, purified in house); made in house
Test: Fatty Acid Synthase (FASN) inhibition scintillation proximity assay
Assay type: biochemical
Conditions: for inhibition at 10 µM: read-out: Human FASN % inhibition @ 10 μM, 10 μM test compound; for IC50: read-out: Human FASN pIC50 (converted)
Summary of the method: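 Compounds at 0.01–30 μM were mixed with 300 ng purified full-length enzyme in 100 mM KH2PO4 pH 7.5, 1 mM DTT. Substrates ³H-acetyl-CoA and malonyl-CoA were then converted, and bead addition stopped the reaction. Signal was normalised to low and high plate controls and fitted by 4-parameter nonlinear regression.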

T1 sequence (P49327 whole entry): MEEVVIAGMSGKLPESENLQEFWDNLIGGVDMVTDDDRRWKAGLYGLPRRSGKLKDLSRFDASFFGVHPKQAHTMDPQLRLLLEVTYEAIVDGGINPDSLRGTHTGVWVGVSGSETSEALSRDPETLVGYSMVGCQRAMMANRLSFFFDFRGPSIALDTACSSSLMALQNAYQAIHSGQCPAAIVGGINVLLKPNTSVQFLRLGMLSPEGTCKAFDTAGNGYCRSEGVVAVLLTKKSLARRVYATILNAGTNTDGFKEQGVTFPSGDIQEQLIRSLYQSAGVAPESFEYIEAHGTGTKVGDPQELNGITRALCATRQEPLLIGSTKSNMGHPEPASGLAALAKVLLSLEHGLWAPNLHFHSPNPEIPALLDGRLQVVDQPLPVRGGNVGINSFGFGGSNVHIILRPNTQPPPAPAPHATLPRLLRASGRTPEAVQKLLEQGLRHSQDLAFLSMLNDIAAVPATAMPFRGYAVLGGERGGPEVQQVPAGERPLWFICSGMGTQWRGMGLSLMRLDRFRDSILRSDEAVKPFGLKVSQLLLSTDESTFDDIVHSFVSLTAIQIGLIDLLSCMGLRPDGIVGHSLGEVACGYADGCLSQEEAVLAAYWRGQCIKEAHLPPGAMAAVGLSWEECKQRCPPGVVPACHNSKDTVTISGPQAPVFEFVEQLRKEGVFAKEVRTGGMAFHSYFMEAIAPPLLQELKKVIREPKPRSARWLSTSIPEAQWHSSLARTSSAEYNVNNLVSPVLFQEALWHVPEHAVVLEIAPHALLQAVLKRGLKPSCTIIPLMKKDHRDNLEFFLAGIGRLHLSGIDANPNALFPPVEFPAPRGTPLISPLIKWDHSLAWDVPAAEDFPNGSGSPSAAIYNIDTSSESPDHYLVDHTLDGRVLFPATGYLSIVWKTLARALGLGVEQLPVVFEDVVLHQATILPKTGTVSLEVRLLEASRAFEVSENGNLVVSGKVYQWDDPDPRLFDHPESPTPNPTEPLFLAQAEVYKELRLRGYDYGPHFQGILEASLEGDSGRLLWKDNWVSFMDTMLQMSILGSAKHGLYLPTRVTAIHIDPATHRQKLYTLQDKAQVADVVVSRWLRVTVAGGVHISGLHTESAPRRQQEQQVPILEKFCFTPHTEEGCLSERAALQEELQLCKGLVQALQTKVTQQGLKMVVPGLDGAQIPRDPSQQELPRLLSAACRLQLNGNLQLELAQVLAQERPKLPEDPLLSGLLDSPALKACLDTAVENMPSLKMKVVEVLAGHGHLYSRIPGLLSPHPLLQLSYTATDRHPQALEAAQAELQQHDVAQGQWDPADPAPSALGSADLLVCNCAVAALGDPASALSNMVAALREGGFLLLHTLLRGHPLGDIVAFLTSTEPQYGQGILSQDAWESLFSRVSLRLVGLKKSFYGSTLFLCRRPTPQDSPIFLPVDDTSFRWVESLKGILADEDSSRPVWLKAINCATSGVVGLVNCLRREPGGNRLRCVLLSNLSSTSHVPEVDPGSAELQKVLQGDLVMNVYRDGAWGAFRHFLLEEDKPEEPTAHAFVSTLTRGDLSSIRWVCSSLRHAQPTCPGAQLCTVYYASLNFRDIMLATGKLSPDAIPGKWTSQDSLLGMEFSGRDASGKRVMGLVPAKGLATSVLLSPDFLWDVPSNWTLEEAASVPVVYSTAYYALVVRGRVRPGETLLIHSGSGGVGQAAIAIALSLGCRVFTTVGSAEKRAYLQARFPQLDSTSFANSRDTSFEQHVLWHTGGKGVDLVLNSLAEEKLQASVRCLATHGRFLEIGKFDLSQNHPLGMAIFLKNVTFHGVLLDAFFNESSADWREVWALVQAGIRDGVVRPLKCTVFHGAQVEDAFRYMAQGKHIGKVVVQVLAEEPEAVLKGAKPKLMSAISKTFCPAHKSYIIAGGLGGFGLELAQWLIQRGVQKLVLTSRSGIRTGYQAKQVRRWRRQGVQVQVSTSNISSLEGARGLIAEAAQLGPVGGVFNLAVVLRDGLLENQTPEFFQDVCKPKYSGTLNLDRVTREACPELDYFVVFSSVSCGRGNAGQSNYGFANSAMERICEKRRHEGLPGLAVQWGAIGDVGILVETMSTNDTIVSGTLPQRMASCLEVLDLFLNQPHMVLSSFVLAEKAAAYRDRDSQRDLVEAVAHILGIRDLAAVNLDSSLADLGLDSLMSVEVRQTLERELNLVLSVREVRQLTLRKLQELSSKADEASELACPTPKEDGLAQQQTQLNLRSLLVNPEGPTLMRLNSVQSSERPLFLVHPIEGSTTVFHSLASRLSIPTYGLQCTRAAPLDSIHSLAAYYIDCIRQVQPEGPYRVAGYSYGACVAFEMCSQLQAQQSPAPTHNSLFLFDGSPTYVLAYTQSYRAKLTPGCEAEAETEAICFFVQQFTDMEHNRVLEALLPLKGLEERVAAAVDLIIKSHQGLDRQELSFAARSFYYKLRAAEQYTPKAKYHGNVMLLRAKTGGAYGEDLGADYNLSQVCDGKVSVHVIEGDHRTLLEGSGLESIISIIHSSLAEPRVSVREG

Structure (SMILES) | inhibition at 10 µM | IC50
O=C(C1CC1)N1CCC[C@@H](CN2C(=O)C3(CC3)N=C2c2ccc(-c3ccc4occc4c3)cc2)C1 [compound 395, 5-[4-(1-Benzofuran-5-yl)phenyl]-6-{[(3R)-1-(cyclopropylcarbonyl)piperidin-3-yl]methyl}-4,6-diazaspiro[2.4]hept-4-en-7-one] | 54% | 6.31 µM
O=C(C1CC1)N1CC(CN2C(=O)C3(CCOCC3)N=C2c2ccc(-c3ccc4occc4c3)cc2)C1 [compound 702, 2-[4-(1-Benzofuran-5-yl)phenyl]-3-{[1-(cyclopropylcarbonyl)azetidin-3-yl]methyl}-8-oxa-1,3-diazaspiro[4.5]dec-1-en-4-one] | 75% | ~2.63 µM
O=C(C1CC1)N1CC(CN2C(=O)C3(CC3)N=C2c2ccc(-c3cnc4cccnc4c3)cc2)C1 [compound 801, 5-(4-(1,5-naphthyridin-3-yl)phenyl)-6-((1-(cyclopropanecarbonyl)azetidin-3-yl)methyl),4-6diazaspiro[2.4]hept-4-en-7-one] | 6% | > 10 µM
Cn1nccc1-c1ccc(C2=NC3(CC3)C(=O)N2CC2CN(C(=O)C3CC3)C2)cc1 [compound 43, 6-{[1-(Cyclopropylcarbonyl)azetidin-3-yl]methyl}-5-[4-(1-methyl-1H-pyrazol-5-yl)phenyl]-4,6-diazaspiro[2.4]hept-4-en-7-one] | 45.4% | ~10 µM
CN1CCN(c2cc(-c3ccc(C4=NC5(CCCC5)C(=O)N4C[C@@H]4CCN(C(=O)C5CC5)C4)cc3)ccn2)CC1 [compound 829, (R)-3-((1-(cyclopropanecarbonyl)pyrrolidin-3-yl)methyl)-2-(4-(2-(4-methylpiperazin-1-yl)pyridin-4-yl)phenyl)-1,3-diazaspiro[4.4]non-1-en-4-one] | 7% | > 10 µM
CC(C)N1CCC2(CC1)N=C(c1ccc(-c3ccc4cnccc4c3)cc1)N(CC1CN(C(=O)C3CC3)C1)C2=O [compound 951, 3-((1-(cyclopropanecarbonyl)azetidin-3-yl)methyl)-8-isopropyl-2-(4-(isoquinolin-6-yl)phenyl)-1,3,8-triazaspiro[4.5]dec-1-en-4-one] | 41% | > 10 µM
CS(=O)(=O)N1CC[C@@H](CN2C(=O)C3(CCOCC3)N=C2c2ccc(-c3ccc4cccnc4c3)cc2)C1 [compound 960] | -2% | > 10 µM
O=C(C1CC1)N1CCC(CN2C(=O)C3(CC3)N=C2c2ccc(-c3cccc(F)c3)cc2)CC1 [compound 158, 6-{[1-(Cyclopropylcarbonyl)piperidin-4-yl]methyl}-5-(3′-fluorobiphenyl-4-yl)-4,6-diazaspiro[2.4]hept-4-en-7-one] | 33% | > 10 µM
O=C(C1CC1)N1CC(CN2C(=O)C3(CC3)N=C2c2ccc(-c3cnc4ncccc4c3)cc2)C1 [compound 799, 5-(4-(1,8-baphthyridin-3-yl)phenyl)-6-((1-(cyclopropanecarbonyl)azetidin-3-yl)methyl)-4,6-diazaspiro[2.4]hept-4-en-7-one] | 39% | > 10 µM
CC(C)N1CCC2(CC1)N=C(c1ccc(-c3ccc4occc4c3)cc1)N(CC1CN(C(=O)C3CC3)C1)C2=O [compound 166, 2-[4-(1-Benzofuran-5-yl)phenyl]-3-{[1-(cyclopropylcarbonyl)azetidin-3-yl]methyl}-8-(1-methylethyl)-1,3,8-triazaspiro[4.5]dec-1-en-4-one] | 71.6% | 3.39 µM
COc1cc(-c2ccc3occc3c2)ccc1C1=NC2(CCCC2)C(=O)N1C[C@@H]1CCN(C(=O)C2CC2)C1 [compound 156, 2-[4-(1-Benzofuran-5-yl)-2-methoxyphenyl]-3-{[(3R)-1-(cyclopropylcarbonyl)pyrrolidin-3-yl]methyl}-1,3-diazaspiro[4.4]non-1-en-4-one] | 108% | 0.191 µM
O=C(C1CC1)N1CC(CN2C(=O)C3(CC3)N=C2c2ccc(-c3ccc4c(cnn4C4CC4)c3)cc2)C1 [compound 803, 6-((1-(cyclopropanecarbonyl)azetidin-3-yl)methyl)-5-(4-(1-cyclopropyl-1H-indazol-5-yl)phenyl)-4,6-diazaspiro[2.4]hept-4-en-7-one] | 48% | > 10 µM
CC(C)N1CCC2(CC1)N=C(c1ccc(-c3ccc4[nH]ncc4c3)cc1)N(CC1CN(C(=O)C3CC3)C1)C2=O [compound 188, 3-{[1-(Cyclopropylcarbonyl)azetidin-3-yl]methyl}-2-[4-(1H-indazol-5-yl)phenyl]-8-(1-methylethyl)-1,3,8-triazaspiro[4.5]dec-1-en-4-one] | 50.4% | ~10 µM

The next lines start with the values.

inhibition at 10 µM | IC50 | Structure (SMILES)
14% | > 10 µM | COC(=O)N1CC[C@@H](CN2C(=O)C3(CN(C(=O)OC)C3)N=C2c2ccc(-c3ccc(-c4cnn(C)c4)cc3)cc2)C1 [compound 906, (S)-methyl 7-((1-(methoxycarbonyl)pyrrolidin-3-yl)methyl)-6-(4′-(1-methyl-1H-pyrazol-4-yl)-[1,1′-biphenyl]-4-yl)-8-oxo-2,5,7-triazaspiro[3.4]oct-5-ene-2-carboxylate]
23.5% | > 10 µM | Cn1cc(-c2ccc(C3=NC4(CC4)C(=O)N3CC3CN(C(=O)C4CC4)C3)cc2)cn1 [compound 42, 6-{[1-(Cyclopropylcarbonyl)azetidin-3-yl]methyl}-5-[4-(1-methyl-1H-pyrazol-4-yl)phenyl]-4,6-diazaspiro[2.4]hept-4-en-7-one]
64% | 4.07 µM | Cn1ncc2cc(-c3ccc(C4=NC5(CCOCC5)C(=O)N4CC4CN(C(=O)N5CCCC5)C4)cc3)ccc21 [compound 709, 2-[4-(1-Methyl-1H-indazol-5-yl)phenyl]-3-{[1-(pyrrolidin-1-ylcarbonyl)azetidin-3-yl]methyl}-8-oxa-1,3-diazaspiro[4.5]dec-1-en-4-one]
38% | 9.12 µM | Cn1cc(-c2ccc(-c3ccc(C4=NC5(CCNCC5)C(=O)N4CC4CN(C(=O)C5CC5)C4)cc3)cc2)cn1 [compound 759, 3-{[1-(Cyclopropylcarbonyl)azetidin-3-yl]methyl}-2-[4′-(1-methyl-1H-pyrazol-4-yl)biphenyl-4-yl]-1,3,8-triazaspiro[4.5]dec-1-en-4-one]
53% | ~6.03 µM | CC(C)n1ncc2cc(-c3ccc(C4=NC5(CC5)C(=O)N4C[C@@H]4CCN(C(=O)C5CC5)C4)cc3)ccc21 [compound 454, 6-{[(3R)-1-(Cyclopropylcarbonyl)pyrrolidin-3-yl]methyl}-5-{4-[1-(1-methylethyl)-1H-indazol-5-yl]phenyl}-4,6-diazaspiro[2.4]hept-4-en-7-one]
109% | 0.245 µM | Cc1cc2cc(-c3ccc(C4=NC5(CCN(C(=O)CN(C)C)CC5)C(=O)N4C[C@@H]4CCN(C(=O)C5CC5)C4)cc3)ccc2o1 [compound 174, 3-{[(3R)-1-(Cyclopropylcarbonyl)pyrrolidin-3-yl]methyl}-8-(N,N-dimethylglycyl)-2-[4-(2-methyl-1-benzofuran-5-yl)phenyl]-1,3,8-triazaspiro[4.5]dec-1-en-4-one]
